Results from PubChem BioAssay AID2060606 (Molecular Pharmacology Branch, DTP, NCI, 2025).
Values joined by “and” are separate entries in the source; they are usually repeats but may differ in a detail not shown here. Equal entries are not always repeated.

Test system: 922993-354-T-J3-PDC complex spheroids, viability, % test/control
Experiment: Anticancer human tumor 922993-354-T-J3-PDC patient-derived endometrial carcinoma cell line growth inhibition [CLK]
Conditions: for viability, T/C: stronger effect = lower value
Description: A high-throughput screen of multi-cell type tumor spheroids was designed to identify active combinations of […] and targeted small molecules. Complex spheroids include a stromal component modeled by human endothelial cells (HUVEC) and fibroblasts modeled by human mesenchymal stem cells (MSCs). The concentration ranges selected for each drug and investigational agent were based upon clinically achievable concentrations if the clinical Cmax of the agent was known.
Compounds. The drugs and investigational agents: cirtuvivint (SM08502; NSC835563), CC-671 (NSC850746), vemurafenib (NSC761431), tapotoclax (NSC804041), sotorasib (NSC818433), adagrasib (NSC831453), MRTX-1133 (NSC836407), BAY2416964 (NSC825713), copanlisib (NSC816437), inavolisib (NSC800729), abemaciclib (NSC768073), osimertinib (NSC779217), entinostat (NSC756642), eltanexor (KPT-8602, NSC794443), venetoclax (NSC766270), ceralasertib (NSC777638), bortezomib (NSC756655), olaparib (NSC753686), talazoparib (NSC767125), alisertib (NSC759677), peposertib (NSC802822), gemcitabine (NSC613327), 5-fluorouracil (NSC19893), SN-38 (NSC673596), oxaliplatin (NSC266046), paclitaxel (NSC125973), and doxorubicin (NSC123127), were obtained from the National Cancer Institute (NCI) Developmental Therapeutics Program Chemical Repository. The FDA-approved anticancer drug set is available from the Developmental Therapeutics Program at https://dtp.cancer.gov/organization/dscb/obtaining/available plates.htm. […] The stock solutions were prepared in dimethyl sulfoxide (DMSO, Sigma-Aldrich, St. Louis, MO, cat. D2650), except for the platinum complexes which were prepared in saline (Quality Biological, Gaithersburg, MD, cat. 114-055-101), at 800-fold the tested concentration and stored at -70 degrees C prior to their use. All drugs and investigational agents were tested over a range starting from a high concentration at or near the clinical Cmax and decreasing in half-log increments. If the clinical Cmax for an agent had not been determined, the highest concentration tested was 10 microM.
Cell Culture. All cells were maintained in an incubator at 37 degrees C and 5% CO2 with 95% humidity. The PDC lines were cultured according to standard operating procedures established by the NCI PDMR. Briefly, all PDCs were thawed and cultured in Matrigel-coated flasks prepared with a working solution of 1X Ham's F-12 nutrient mix, without supplementation (Invitrogen, Waltham, MA, cat. 11765054), 100 U/mL penicillin-streptomycin (Invitrogen, cat. 15140122), and 2.5% Matrigel (Corning Inc., Corning, NY, cat. 354248) for the first three passages. The 947758-054-R-J2-PDC line was cultured in 6B/Colon 1A media, which includes advanced DMEM/F-12 (Thermo Fisher Scientific, cat. 12634028), 10 mM HEPES (Thermo Fisher Scientific, cat. 15630080), 1X GlutaMAX supplement (Thermo Fisher Scientific, cat. 35050061), 0.1 mg/mL primocin (InvivoGen, cat. ant-pm-2), 10% defined fetal bovine serum, heat inactivated (HyClone Laboratories Inc., cat. SH30070.03HI), 1.25 mM N-Acetyl-L-cysteine (Sigma-Aldrich, cat. A9165), 10 mM nicotinamide (Sigma-Aldrich, cat. N0636), 1X B-27 supplement (Thermo Fisher Scientific, cat. 17504044), 1X N-2 supplement (Thermo Fisher Scientific, cat. 17502048), and 10 microM Y-27632 dihydrochloride (Tocris Bioscience, cat. 1254). The 876862-298-R-J1-PDC was cultured in 6E media, which includes all 6B/Colon 1A media components plus 50% L-WRN conditioned media (ATCC, cat. CRL-3276), 50 ng/mL recombinant human EGF recombinant protein (hEGF; Thermo Fisher Scientific, cat. PHG0311), 10 ng/mL recombinant human fibroblast growth factor 10 (hGFG-10; PeproTech, cat. 100-26), 1 ng/mL recombinant human fibroblast growth factor 2 (hFGF-2; PeproTech, cat. 100-18B), and 1 µM prostaglandin E2 (PGE2; Tocris, cat. 2296). The 227483-062-R1-J1-PDC line was cultured in Panc media, containing all 6E components except hFGF-2, with the addition of 500 nM SB-431542 (Selleckchem, cat. S1067) and 10 nM gastrin (Tocris, cat. 3006). […]
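Note: spheroids exposed to the agents for 7 days before readout.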

## Nc1ccn(C2OC(CO)C(O)C2(F)F)c(=O)n1 (stereo unspecified) + CN1CCN(c2cc(C(=O)Nc3cc4cc(-c5cnn(C)c5)ccc4cn3)ccn2)CC1
Curve of first compound, second compound 0.0316 µM
  IC50: < 31.6 nM
Curve of first compound, second compound 0.1 µM
  IC50: < 31.6 nM
Curve of first compound, second compound 0.316 µM
  IC50: < 31.6 nM
Curve of first compound, second compound 1 µM
  IC50: < 31.6 nM
Curve of first compound, second compound 3.16 µM
  IC50: < 31.6 nM
Curve of first compound, second compound 10 µM
  IC50: < 31.6 nM
Second compound 0.0316 µM, first compound 0.0316 µM
  viability, T/C: 20.2%
Second compound 0.0316 µM, first compound 0.1 µM
  viability, T/C: 13.4%
Second compound 0.0316 µM, first compound 0.316 µM
  viability, T/C: 16.6%
Second compound 0.0316 µM, first compound 1 µM
  viability, T/C: 15.9%
Second compound 0.0316 µM, first compound 3.16 µM
  viability, T/C: 16.6%
Second compound 0.0316 µM, first compound 10 µM
  viability, T/C: 17.2%
Second compound 0.1 µM, first compound 0.0316 µM
  viability, T/C: 23.5%
Second compound 0.1 µM, first compound 0.1 µM
  viability, T/C: 16.3%
Second compound 0.1 µM, first compound 0.316 µM
  viability, T/C: 15.7%
Second compound 0.1 µM, first compound 1 µM
  viability, T/C: 17.2%
Second compound 0.1 µM, first compound 3.16 µM
  viability, T/C: 16.9%
Second compound 0.1 µM, first compound 10 µM
  viability, T/C: 18.4%
Second compound 0.316 µM, first compound 0.0316 µM
  viability, T/C: 14%
Second compound 0.316 µM, first compound 0.1 µM
  viability, T/C: 11.3%
Second compound 0.316 µM, first compound 0.316 µM
  viability, T/C: 10.3%
Second compound 0.316 µM, first compound 1 µM
  viability, T/C: 11.6%
Second compound 0.316 µM, first compound 3.16 µM
  viability, T/C: 12.5%
Second compound 0.316 µM, first compound 10 µM
  viability, T/C: 11.5%
Second compound 1 µM, first compound 0.0316 µM
  viability, T/C: 0.1%
Second compound 1 µM, first compound 0.1 µM
  viability, T/C: 0.12%
Second compound 1 µM, first compound 0.316 µM
  viability, T/C: 0.13%
Second compound 1 µM, first compound 1 µM
  viability, T/C: 0.06%
Second compound 1 µM, first compound 3.16 µM
  viability, T/C: 1.89%
Second compound 1 µM, first compound 10 µM
  viability, T/C: 0.07%
Second compound 3.16 µM, first compound 0.0316 µM
  viability, T/C: 0.11%
Second compound 3.16 µM, first compound 0.1 µM
  viability, T/C: 2.53%
Second compound 3.16 µM, first compound 0.316 µM
  viability, T/C: 1.37%
Second compound 3.16 µM, first compound 1 µM
  viability, T/C: 0.13%
Second compound 3.16 µM, first compound 3.16 µM
  viability, T/C: 0.85%
Second compound 3.16 µM, first compound 10 µM
  viability, T/C: 2.45%
Second compound 10 µM, first compound 0.0316 µM
  viability, T/C: 0.16%
Second compound 10 µM, first compound 0.1 µM
  viability, T/C: 1.71%
Second compound 10 µM, first compound 0.316 µM
  viability, T/C: 1.82%
Second compound 10 µM, first compound 1 µM
  viability, T/C: 0.17%
Second compound 10 µM, first compound 3.16 µM
  viability, T/C: 0.67%
Second compound 10 µM, first compound 10 µM
  viability, T/C: 1.33%

## Nc1ccccc1NC(=O)c1ccc(CNC(=O)OCc2cccnc2)cc1
Compound 0.0316 µM
  viability, T/C: 105% and 111%
Compound 0.1 µM
  viability, T/C: 71.8% and 85.9%
Compound 0.316 µM
  viability, T/C: 95.8% and 95.2%
Compound 1 µM
  viability, T/C: 71.8% and 81.7%
Compound 3.16 µM
  viability, T/C: 64.9% and 70.1%
Compound 10 µM
  viability, T/C: 53.4% and 55.2%
Curve of compound
  IC50: > 10000 nM

## C#Cc1c(F)ccc2cc(O)cc(-c3ncc4c(N5CC6CCC(C5)N6)nc(OCC56CCCN5CC(F)C6)nc4c3F)c12 (stereo unspecified)
Compound 0.0316 µM
  viability, T/C: 99.4% and 98.9%
Compound 0.1 µM
  viability, T/C: 82% and 83%
Compound 0.316 µM
  viability, T/C: 95.2% and 109%
Compound 1 µM
  viability, T/C: 93% and 94%
Compound 3.16 µM
  viability, T/C: 98.1% and 104%
Compound 10 µM
  viability, T/C: 95.9% and 101%
Curve of compound
  IC50: > 10000 nM
